# Experimental data: patent publication US20250161308A1, “Methods of Treating Covid-Related Disorders” (priority 2022, published 2025)
# Where two headings read alike, the source gives them in different places.
# Tests used:
# [1] = tested on: Rat primary cortical neuron cultures; format: cell-based; conditions: for Significance of neuroprotection vs 1 uM LPS: 24 h LPS; for protection of primary neurons from LPS-stimulated inflammatory toxicity: at at least one dose tested
# [2] = tested on: Rat hippocampal neurons; experiment: Neurite outgrowth assay; format: cell-based
# [3] = tested on: Rat hippocampal neurons; experiment: Synaptogenesis assay; format: cell-based; conditions: for Significant increase in: Synapses: Table 4 study
# [4] = tested on: LPS-induced cognitive deficit in CD-1 mice; experiment: Rodent LPS model of brain inflammation, T-maze spontaneous alternation; format: in vivo, mouse; conditions: for Recovery (%) / Spontaneous alternation (%) Mean: LPS 250 μg/kg
# [5] = tested on: THP1-differentiated macrophages; format: cell-based, human; set-up: key to Significant reduction in IL-6 / Significant reduction in TNF-α / Significant reduction in IL-1β: NS: indicates a non-significant reduction in the indicated cytokine; +: indicates a p value<0.05 in Tukey post test; ++: indicates a p value<0.01 in Tukey post test; conditions: for Significant reduction in IL-1β / Significant reduction in IL-6 / Significant reduction in TNF-α: 24 hrs LPS
# [6] = tested on: pulmonary LPS-stimulated rats; experiment: Immune cell infiltration in BALF, LPS acute pulmonary inflammation; format: in vivo, rat
# [7] = tested on: pulmonary LPS-stimulated rats; experiment: Cytokine expression in BALF supernatant (multiplex immunoassay), LPS acute pulmonary inflammation; format: in vivo, rat
# [8] = tested on: scopolamine-induced spatial memory deficits in rats; experiment: Scopolamine-induced spatial memory deficit, Morris water maze (3 mg/kg scopolamine, 8 days); format: in vivo, rat
structure (smiles),measurement,setting,value
CCC(C)CN1CC2N(Cc3ccc(C(F)(F)F)cc3)CCC(=O)N2[C@@H](C)C1=O (some centres unmarked) [Compound 5a],Significance of neuroprotection vs 1 uM LPS,[1]; 0.1 nM,+++ (+++ indicates p<0.001)
same,Significance of neuroprotection vs 1 uM LPS,[1]; 1 nM,+++ (+++ indicates p<0.001)
same,Significance of neuroprotection vs 1 uM LPS,[1]; 10 nM,+++ (+++ indicates p<0.001)
same,Significance of neuroprotection vs 1 uM LPS,[1]; 100 nM,+++ (+++ indicates p<0.001)
same,Significance of neuroprotection vs 1 uM LPS,[1]; 1 μM,+++ (+++ indicates p<0.001)
same,protection of primary neurons from LPS-stimulated inflammatory toxicity,[1],protected primary neurons from LPS-stimulated inflammatory toxicity
same,neurite length / extension of neurites (in words),[2],increase neurite length at 1 nM
same,Significant increase in: Neurite length,"[2]; 1 nM, Table 4 study",++++ (++++ = p < 0.0001)
same,synapse counts (in words),[3],increase synapse counts at doses of 1 nM and 100 nM
same,Significant increase in: Synapses,[3]; 1 nM,++++ (++++ = p < 0.0001)
same,Significant increase in: Synapses,[3]; 100 nM,++++ (++++ = p < 0.0001)
same,Recovery (%),[4]; 1.25 mg/kg p.o. 14 days,58%
same,Spontaneous alternation (%) Mean,[4]; 1.25 mg/kg p.o. 14 days,59%
same,Spontaneous alternation (%) Mean,"[4]; 1.25 mg/kg p.o. 14 days, listed as Cmpd 5a",59.3%
same,Recovery (%),[4]; 2.5 mg/kg p.o. 14 days,53%
same,Spontaneous alternation (%) Mean,[4]; 2.5 mg/kg p.o. 14 days,58%
same,Spontaneous alternation (%) Mean,"[4]; 2.5 mg/kg p.o. 14 days, listed as Cmpd 5a",57.9%
same,Recovery (%),[4]; 5 mg/kg p.o. 14 days,64%
same,Spontaneous alternation (%) Mean,[4]; 5 mg/kg p.o. 14 days,61%
same,Spontaneous alternation (%) Mean,"[4]; 5 mg/kg p.o. 14 days, listed as Cmpd 5a",60.7%
same,Recovery (%),[4]; 10 mg/kg p.o. 14 days,53%
same,Spontaneous alternation (%) Mean,[4]; 10 mg/kg p.o. 14 days,58%
same,Spontaneous alternation (%) Mean,"[4]; 10 mg/kg p.o. 14 days, listed as Cmpd 5a",57.9%
same,Recovery (%),[4]; 20 mg/kg p.o. 14 days,61%
same,Spontaneous alternation (%) Mean,[4]; 20 mg/kg p.o. 14 days,60%
same,Spontaneous alternation (%) Mean,"[4]; 20 mg/kg p.o. 14 days, listed as Cmpd 5a",60.0%
same,significance of reversal of LPS-induced cognitive deficit (in words),[4]; T-maze,significant reversal of LPS-induced cognitive deficits at all doses
same,Significant reduction in IL-1β,[5]; 0.1 nM,++ (indicates a p value<0.01 in Tukey post test)
same,Significant reduction in IL-6,[5]; 0.1 nM,NS
same,Significant reduction in TNF-α,[5]; 0.1 nM,NS
same,Significant reduction in IL-1β,[5]; 10 nM,++ (indicates a p value<0.01 in Tukey post test)
same,Significant reduction in IL-6,[5]; 10 nM,+ (indicates a p value<0.05 in Tukey post test)
same,Significant reduction in TNF-α,[5]; 10 nM,NS
same,Significant reduction in IL-1β,[5]; 1000 nM,++ (indicates a p value<0.01 in Tukey post test)
same,Significant reduction in IL-6,[5]; 1000 nM,++ (indicates a p value<0.01 in Tukey post test)
same,Significant reduction in TNF-α,[5]; 1000 nM,+ (indicates a p value<0.05 in Tukey post test)
same,expression of IL-1β (in words),[5]; at at least one tested dose,significantly reduced the expression of IL-1β and TNF-α
same,expression of IL-6 (in words),[5]; at at least one tested dose,significantly reduced the expression of IL-6
same,expression of TNF-α (in words),[5]; at at least one tested dose,significantly reduced the expression of IL-1β and TNF-α
same,"Neutrophils in BALF, reduction vs disease control",[6]; 0.075 mg/kg IV,++ (++ = >25% reduction in cell count vs disease control)
same,"Total Leukocytes in BALF, reduction vs disease control",[6]; 0.075 mg/kg IV,++ (++ = >25% reduction in cell count vs disease control)
same,"Neutrophils in BALF, reduction vs disease control",[6]; 0.75 mg/kg IV,+ (+ = >5% reduction in cell count vs disease control)
same,"Total Leukocytes in BALF, reduction vs disease control",[6]; 0.75 mg/kg IV,+ (+ = >5% reduction in cell count vs disease control)
same,"Neutrophils in BALF, reduction vs disease control",[6]; 7.5 mg/kg IV,+ (+ = >5% reduction in cell count vs disease control)
same,"Total Leukocytes in BALF, reduction vs disease control",[6]; 7.5 mg/kg IV,+ (+ = >5% reduction in cell count vs disease control)
same,neutrophil counts compared to LPS-only controls (in words),"[6]; rat, in vivo",reduced both total leukocyte counts and neutrophil counts
same,total leukocyte counts compared to LPS-only controls (in words),"[6]; rat, in vivo",reduced both total leukocyte counts and neutrophil counts
same,"CCL3, significant change in expression in BALF supernatant",[7]; 0.075 mg/kg IV,"+ (+ = Significant change in cytokine quantification, p < 0.05 by Student's T-test.)"
same,"CX3CL1, significant change in expression in BALF supernatant",[7]; 0.075 mg/kg IV,"+ (+ = Significant change in cytokine quantification, p < 0.05 by Student's T-test.)"
same,"EGF, significant change in expression in BALF supernatant",[7]; 0.075 mg/kg IV,"+ (+ = Significant change in cytokine quantification, p < 0.05 by Student's T-test.)"
same,"IFN-γ, significant change in expression in BALF supernatant",[7]; 0.075 mg/kg IV,"+ (+ = Significant change in cytokine quantification, p < 0.05 by Student's T-test.)"
same,"IL-1α, significant change in expression in BALF supernatant",[7]; 0.075 mg/kg IV,"+ (+ = Significant change in cytokine quantification, p < 0.05 by Student's T-test.)"
same,"IL-1β, significant change in expression in BALF supernatant",[7]; 0.075 mg/kg IV,"+ (+ = Significant change in cytokine quantification, p < 0.05 by Student's T-test.)"
same,"IL-10, significant change in expression in BALF supernatant",[7]; 0.075 mg/kg IV,"+ (+ = Significant change in cytokine quantification, p < 0.05 by Student's T-test.)"
same,"IL-12p70, significant change in expression in BALF supernatant",[7]; 0.075 mg/kg IV,"+ (+ = Significant change in cytokine quantification, p < 0.05 by Student's T-test.)"
same,"IL-17A, significant change in expression in BALF supernatant",[7]; 0.075 mg/kg IV,"+ (+ = Significant change in cytokine quantification, p < 0.05 by Student's T-test.)"
same,"IFN-γ, significant change in expression in BALF supernatant",[7]; 0.75 mg/kg IV,"+ (+ = Significant change in cytokine quantification, p < 0.05 by Student's T-test.)"
same,"IL-1α, significant change in expression in BALF supernatant",[7]; 0.75 mg/kg IV,"+ (+ = Significant change in cytokine quantification, p < 0.05 by Student's T-test.)"
same,"IL-1β, significant change in expression in BALF supernatant",[7]; 0.75 mg/kg IV,"+ (+ = Significant change in cytokine quantification, p < 0.05 by Student's T-test.)"
same,"IL-10, significant change in expression in BALF supernatant",[7]; 0.75 mg/kg IV,"+ (+ = Significant change in cytokine quantification, p < 0.05 by Student's T-test.)"
same,"IL-17A, significant change in expression in BALF supernatant",[7]; 0.75 mg/kg IV,"+ (+ = Significant change in cytokine quantification, p < 0.05 by Student's T-test.)"
same,"IL-1α, significant change in expression in BALF supernatant",[7]; 7.5 mg/kg IV,"+ (+ = Significant change in cytokine quantification, p < 0.05 by Student's T-test.)"
same,"IL-10, significant change in expression in BALF supernatant",[7]; 7.5 mg/kg IV,"+ (+ = Significant change in cytokine quantification, p < 0.05 by Student's T-test.)"
same,cytokines with significant changes in expression in BALF supernatant (list),"[7]; any dose, p<0.05 vs LPS-only animals","CCL3, CXCL1, IFN-γ, IL-1α, IL-1p, IL-1β, IL-12p70, and IL-17A"
CCC(C)CN1CC2N(Cc3ccc(OC(F)F)cc3)CCC(=O)N2[C@@H](C)C1=O (some centres unmarked) [Compound 6a],Significance of neuroprotection vs 1 uM LPS,[1]; 0.1 nM,+++ (+++ indicates p<0.001)
same,Significance of neuroprotection vs 1 uM LPS,[1]; 1 nM,+++ (+++ indicates p<0.001)
same,Significance of neuroprotection vs 1 uM LPS,[1]; 10 nM,+++ (+++ indicates p<0.001)
same,Significance of neuroprotection vs 1 uM LPS,[1]; 100 nM,+++ (+++ indicates p<0.001)
same,Significance of neuroprotection vs 1 uM LPS,[1]; 1 μM,+++ (+++ indicates p<0.001)
same,protection of primary neurons from LPS-stimulated inflammatory toxicity,[1],protected primary neurons from LPS-stimulated inflammatory toxicity
same,Significant reduction in IL-1β,[5]; 0.1 nM,NS
same,Significant reduction in IL-6,[5]; 0.1 nM,NS
same,Significant reduction in TNF-α,[5]; 0.1 nM,NS
same,Significant reduction in IL-1β,[5]; 10 nM,NS
same,Significant reduction in IL-6,[5]; 10 nM,NS
same,Significant reduction in TNF-α,[5]; 10 nM,NS
same,Significant reduction in IL-1β,[5]; 1000 nM,+ (indicates a p value<0.05 in Tukey post test)
same,Significant reduction in IL-6,[5]; 1000 nM,NS
same,Significant reduction in TNF-α,[5]; 1000 nM,+ (indicates a p value<0.05 in Tukey post test)
same,expression of IL-1β (in words),[5]; at at least one tested dose,significantly reduced the expression of IL-1β and TNF-α
same,expression of TNF-α (in words),[5]; at at least one tested dose,significantly reduced the expression of IL-1β and TNF-α
same,Cognitive Improvement,[8]; 1 mg/kg PO,− (− indicates post-test p-value above 0.06)
same,Cognitive Improvement,[8]; 10 mg/kg PO,++ (++ indicates post-test p-value between 0.05 and 0.01)
